Reference: patent US5916892A, “Trans cyclopentanyl deazaadenyl analogs useful as immunosuppressants” (Hoechst Marion Roussel, Inc., priority 1997, dated 1999)
Counter-ions that a name gives are not always drawn.

How the values were obtained:
[1] = test system: Rat macrophage antigen presentation and the subsequent production of Interleukin-2; test: Regulation of macrophage antigen presentation (mBSA) to rat T-cell hybridoma, Interleukin-2 measured; assay type: cell-based, Lewis (LEW/N) rat
Protocol: Using the method of Ku (Cellular Immunology 130,(1990)) and a Lewis (LEW/N) rat T-cell hybridoma reactive with the protein methylated bovine serum albumin (mBSA), the ability of a compound of formula (1) to regulate M.phi. antigen presentation in vitro may be measured. Peritoneal macrophages obtained from LEW/N rats are plated into tissue culture and treated with 100 ug of mBSA and drug. A control is prepared similarly. After a period of 18 hours the cells are washed and incubated with the T-cell hybridoma for an additional 12 hours. Supernatants from these cultures are obtained and measured for content of Interleukin-2, a T-cell derived lymphokine which is produced by activated T-cells.

[2] = test system: endotoxin-induced septic shock; test: Mouse endotoxin lethality model (D-galactosamine and LPS); assay type: in vivo, CF1 mice; details: 100 mg/kg i.p., pretreated at t=-1 hr; death observed over 8-72 hours
Protocol: Using the method of Silverstein, (J. Exp. Med. 173, 357 (1991)) a mouse endotoxin lethality model may be used to determine if a compound of formula (1) has the ability to inhibit endotoxin-induced septic shock which is dependent on the production of Tumor Necrosis Factor-α (TNF-α). CF1 mice pretreated at time (t)=-1 hr with drug are challenged with 18 mg of D-glactoseamine and 50 ng of LPS, then observed for death over an 8-72 hour period.

Nc1ncnc2c1ncn2[C@@H]1CC[C@@H](O)C1 [(1R,3R)-TRANS-1(9-ADENYL)CYCLOPENTAN-3-OL HYDROCHLORIDE]
T-cell activation / antigen presentation and Interleukin-2 production (in words) ([1]; 0.1 to 100 uM): inhibits T-cell activation
inhibition at 0.1 µM ([1]; Rattus norvegicus, Macrophage, In Vitro Concentration 0.1 uM, IL-2 production): 7.6%
inhibition at 1 µM ([1]; Rattus norvegicus, Macrophage, In Vitro Concentration 1.0 uM, IL-2 production): 30.9%
inhibition at 10 µM ([1]; Rattus norvegicus, Macrophage, In Vitro Concentration 10.0 uM, IL-2 production): 48.7%
inhibition at 100 µM ([1]; Rattus norvegicus, Macrophage, In Vitro Concentration 100.0 uM, IL-2 production): 55.3%
protection against endotoxin lethality [2]: protects against endotoxin lethality
